Tested on: primary culture of rat embryo mesencephalic cells (microglia, astrocytes and neurons)
Test: Neuroprotection against LPS damage (NO, TNF-α, IL-1β release, tyrosine hydroxylase positive neurons), Example 848
Assay type: cell-based
Conditions: 10 uM; for % reversion of NO release from neurons: after 5 days of LPS exposure
Method: Drug preparation. […] The stock solutions will be prepared 1000× the concentration in 100% DMSO. The final concentration of the vehicle (DMSO) is set at 0.1%.
Test animals. Pregnant Wistar rats (Janvier; France) are used for the study. They are group-housed and maintained in a room with controlled temperature (21-22° C.) and a reversed light-dark cycle (12 h/12 h; lights on: 17:30-05:30; lights off: 05:30-17:30) with food and water available ad libitum.
The protocol is performed in 3 independent cultures. For each culture, each condition is performed in sextuplicate.
Female rat of 15 days gestation is killed by cervical dislocation. Fetuses are removed from the uterus and their brains are harvested and placed in ice-cold medium (Leibovitz's L15 medium, Gibco). Only ventral mesencephalic flexure is used for the cell preparations. The midbrain is dissociated by trypsinization. The reaction is stopped, and the suspension is triturated and centrifuged. The pellet of dissociated cells is resuspended in culture medium consisted of DMEM-F12 (Gibco), containing 10% FBS (ATCC), 10% Horse serum (Gibco) and 2 mM L-glutamine (Gibco). Viable cells are counted and seeded on 96-well plates, precoated with poly-L-lysine. Cells are maintained in a humidified incubator at 37° C. in 5% CO2-95% air atmosphere. Half of the medium is changed on day 2 and day 5.
Treatment. On day 7, culture media are removed and replaced by new medium consisting of DMEM-F12 (Gibco) supplemented with 2% FBS (ATCC), 2% Horse serum (Gibco) and 2 mM L-glutamine (Gibco) and containing vehicle or test substances. After 1-hour exposure, LPS at 10 ng/ml is added and exposure further continued for 24 hours or 5 days period.
Inflammatory response measurement and neuronal death evaluation. NO production is measured in the media 24 h and 5 days after LPS exposure using the Griess reagent kit (Molecular Probes). The Griess reagent Assay is a colorimetric reaction assay which measures the conversion of a sulfanilic salt into an azo dye product by nitrite. Visible wavelength absorbance data is collected using a 96-well plate reader at 570 nm (Multiskan EX, Thermo Fisher, France).
IL-10 and TNF-α release are measured in the media 24 h after LPS exposure using the ELISA development kit (PeproTech). The ELISA plate, previously coated with anti-IL-10 or anti-TNF-α antibody at 1 μg/ml, is incubated 1 h with PBS containing 1% of BSA (bovine serum albumin). […] Visible wavelength absorbance data is collected using a 96-well plate reader at 405 nm with wavelength correction set at 650 nm (Multiskan EX, Thermo Fisher, France). […]
Statistical Analysis. The drug-induced effect on NO and cytokines is calculated by setting the response of the LPS-stimulated control as 100%. […]

CC(=O)CC(=O)SCCNC(=O)CCNC(=O)[C@@H]1OP(=O)(O)OCC1(C)C [Compound 42]
% reversion of TH positive neurons (after 5 days of LPS exposure (Example 949)): ≥15% | % reversion of TH positive neurons (after 5 days of LPS exposure (Example 950)): ≥50% | % reversion of NO release from neurons (compared to LPS induction alone): ≥10% | % reversion of NO release from neurons (LPS-induced NO release): ≥10%
